Source: US20230348422A1, “ALBICIDIN DERIVATIVES, THEIR USE AND SYNTHESIS” (TECHNISCHE UNIVERSITÄT BERLIN, priority 2020, published 2023)
Converted amounts (≈) assume the structure as drawn. Where two headings read alike, the source gives them in different places.

Assays:
Assay in all cases: Microdilution assay, MIC
Assay type in all cases: cell-based
[1] = test system: E. coli BW25113; details: Escherichia coli, read-out: MIC E. coli BW25113
[2] = test system: M. phlei DSM 750; details: Mycolicibacterium phlei, read-out: MIC M. phlei DSM 750
[3] = test system: S. typhimurium TA 100; details: Salmonella enterica, 20 h, read-out: MIC S. typhimurium TA 100
Description: (§1) The tests were performed using the micro dilution method.
(§2) The determination of MIC values was performed according to the ninth edition of the Approved Standard M07-A9 (CLSI. Methods for Dilution Antimicrobial Susceptibility Tests for Bacteria That Grow Aerobically; Approved Standard-Ninth Edition. CLSI document M07-A9. Wayne, PA: Clinical and Laboratory Standards Institute; 2012.)
(§3) The test was carried out for four different bacterial strains (E. coli DSM 1116 [gram negative], B. subtilis DSM 10 [gram positive], M. luteus DSM 1790 [gram positive], S. typhimurium TA100 [gram negative]). 20 μL of cryo stock of each strain were inoculated in 20 mL of LB media (Lysogeny broth: 10 g/L peptone, 5 g/L yeast extract, 5 g/L NaCl) followed by incubation over night at 37° C., 200 rpm. The test inoculum was adjusted by the 0.5 McFarland Standard (OD625 from 0.08 to 0.1). Within 15 min of preparation, the adjusted inoculum suspension was diluted in MHBII media (BBL TM Mueller-Hinton Broth II, Becton, Dickinson and Company, New Jersey/USA) so that each well contained approximately 5×10^5 CFU/mL in a final volume of 100 μL. 95 μL of the inoculum were applied per well and 5 μL of the (diluted) antibiotic substance were added.
(§4) Previously the dry antibiotic compounds were dissolved in DMSO (100%) with a concentration of 2560 μg/mL and the resulting stock solutions were further diluted in DMSO (100%). 5 μL of each antibiotic dilution were applied to the microdilution tray to reach final concentrations of 64 μg/mL to 0.008 μg/mL. One row of each well plate was left as a growth control without antibiotic substances and another row of the microdilution tray was used as sterility control (only MHB II-media). The antimicrobial effect of the solvent (DMSO) was tested by adding 5 μL DMSO to several wells without antibiotics. Purity check and cell titer control were performed according to International Standard M07-A9 on Mueller-Hinton II Agar (Mueller Hinton II Broth, 15 g/L agar-agar). Both microdilution trays and agar plates were incubated at 37° C. for 20 h and subsequently analyzed visually.
(§5) The potency of an antibiotic is determined by the minimum inhibitory concentration (MIC). Contrary to intuition, a particularly low value is equated with a high potency.

[4] = test system: B. subtilis DSM 10; details: Bacillus subtilis, read-out: MIC B. subtilis DSM 10
Description: as §1, §2, §3, §4, §5

[5] = test system: E. coli DSM 1116; details: Escherichia coli, read-out: MIC E. coli DSM 1116
Description: as §1, §2, §3, §4, §5

[6] = test system: M. luteus DSM 1790; details: Micrococcus luteus, read-out: MIC M. luteus DSM 1790
Description: as §1, §2, §3, §4, §5

[7] = BW25113, Gram-negative, MHBII media, 37° C., 20 h
[8] = DSM750, Gram-positive, MHBII media, 37° C., 20 h
[9] = Gram-negative, MHBII media, 37° C.
[10] = DSM10, Gram-positive, MHBII media, 37° C., 20 h
[11] = DSM1116, Gram-negative, MHBII media, 37° C., 20 h
[12] = DSM1790, Gram-positive, MHBII media, 37° C., 20 h

SMILES	MIC [1, 7] [µg/mL]	MIC [2, 8] [µg/mL]	MIC [3, 9] [µg/mL]	MIC [4, 10] [µg/mL]	MIC [5, 11] [µg/mL]	MIC [6, 12] [µg/mL]	MIC ([1]; BW25113, 20 h) [µg/mL]	MIC ([2]; DSM750, 20 h) [µg/mL]	MIC [3] [µg/mL]	MIC ([4]; DSM10, 20 h) [µg/mL]	MIC ([5]; DSM1116, 20 h) [µg/mL]	MIC ([6]; DSM1790, 20 h) [µg/mL]
COc1c(NC(=O)c2ccc(NC(=O)c3ccc(NC(=O)[C@H](Cc4cnn[nH]4)NC(=O)c4ccc(C#Cc5ccc(C#N)cc5)cc4)cc3)c(OC)c2O)ccc(C(=O)O)c1O [Compound 1]							0.031 (≈ 0.0371 µM)	1 (≈ 1.2 µM)	≤ 0.016	0.25 (≈ 0.299 µM)	≤ 0.016	0.25 (≈ 0.299 µM)
C#Cc1ccc(C(=O)Nc2ccc(C(=O)N[C@@H](Cc3cnn[nH]3)C(=O)Nc3ccc(C(=O)Nc4ccc(C(=O)Nc5ccc(C(=O)O)c(O)c5OC)c(O)c4OC)cc3)cc2)cc1 [Compound 14]	0.063 (≈ 0.0739 µM)	1 (≈ 1.17 µM)	0.063 (≈ 0.0739 µM)	0.5 (≈ 0.586 µM)	0.063 (≈ 0.0739 µM)	0.5 (≈ 0.586 µM)						
COc1c(NC(=O)c2ccc(NC(=O)c3ccc(NC(=O)[C@H](Cc4cnn[nH]4)NC(=O)c4ccc(NC(=O)c5ccc(-c6nnn[nH]6)cc5)cc4)cc3)c(OC)c2O)ccc(C(=O)O)c1O [Compound 15]	0.25 (≈ 0.279 µM)	8 (≈ 8.92 µM)	0.063 (≈ 0.0702 µM)	2 (≈ 2.23 µM)	0.25 (≈ 0.279 µM)	8 (≈ 8.92 µM)						
COc1c(/C=C(\F)c2ccc(NC(=O)[C@H](Cc3cnn[nH]3)NC(=O)c3ccc(NC(=O)/C(C)=C/c4ccc(O)cc4)cc3)cc2)ccc(C(=O)Nc2ccc(C(=O)O)c(O)c2OC)c1O [Compound 16]							0.063 (≈ 0.0711 µM)	0.25 (≈ 0.282 µM)	0.031 (≈ 0.035 µM)	0.031 (≈ 0.035 µM)	0.063 (≈ 0.0711 µM)	0.063 (≈ 0.0711 µM)
COc1c(/C=C/c2ccc(NC(=O)[C@H](Cc3cnn[nH]3)NC(=O)c3ccc(NC(=O)/C(C)=C/c4ccc(O)cc4)cc3)cc2)ccc(C(=O)Nc2ccc(C(=O)O)c(O)c2OC)c1O [Compound 17]	0.125 (≈ 0.144 µM)	0.5 (≈ 0.576 µM)	0.063 (≈ 0.0726 µM)	0.063 (≈ 0.0726 µM)	0.125 (≈ 0.144 µM)	0.125 (≈ 0.144 µM)						
COc1c(NC(=O)c2ccc(NC(=O)c3ccc(NC(=O)[C@H](Cc4cnn[nH]4)NC(=O)c4ccc5[nH]c(-c6ccc(O)cc6)nc5c4)cn3)c(OC)c2O)ccc(C(=O)O)c1O [Compound 33]	≥ 8	≥ 8	≥ 8	≥ 8	≥ 8	≥ 8						

Now from value to compound, other results behind:

MIC [1, 7] [µg/mL]	MIC [2, 8] [µg/mL]	MIC [3, 9] [µg/mL]	MIC [4, 10] [µg/mL]	MIC [5, 11] [µg/mL]	MIC [6, 12] [µg/mL]	SMILES	MIC ([1]; BW25113, 20 h) [µg/mL]	MIC ([2]; DSM750, 20 h) [µg/mL]	MIC [3] [µg/mL]	MIC ([4]; DSM10, 20 h) [µg/mL]	MIC ([5]; DSM1116, 20 h) [µg/mL]	MIC ([6]; DSM1790, 20 h) [µg/mL]
0.063 (≈ 0.075 µM)	1 (≈ 1.19 µM)	≤ 0.016	0.25 (≈ 0.298 µM)	0.063 (≈ 0.075 µM)	0.5 (≈ 0.595 µM)	COc1ccc(C#Cc2ccc(C(=O)N[C@@H](Cc3cnn[nH]3)C(=O)Nc3ccc(C(=O)Nc4ccc(C(=O)Nc5ccc(C(=O)O)c(O)c5OC)c(O)c4OC)cc3)cc2)cc1 [Compound 2a]						
0.25 (≈ 0.302 µM)	4 (≈ 4.83 µM)	0.125 (≈ 0.151 µM)	0.5 (≈ 0.604 µM)	0.5 (≈ 0.604 µM)	1 (≈ 1.21 µM)	COc1c(NC(=O)c2ccc(NC(=O)c3ccc(NC(=O)[C@H](Cc4cnn[nH]4)NC(=O)c4ccc(/C=C/c5ccc(O)cc5)cc4)cc3)c(OC)c2O)ccc(C(=O)O)c1O [Compound 3]						
0.063 (≈ 0.0749 µM)	1 (≈ 1.19 µM)	≤ 0.016	0.25 (≈ 0.297 µM)	0.063 (≈ 0.0749 µM)	0.5 (≈ 0.595 µM)	COc1ccc(C#Cc2ccc(C(=O)N[C@@H](Cc3cnn[nH]3)C(=O)Nc3ccc(C(=O)Nc4ccc(C(=O)Nc5ccc(C(=O)O)c(O)c5OC)c(O)c4OC)cc3)cc2)cn1 [Compound 4]						
0.125 (≈ 0.151 µM)	1 (≈ 1.21 µM)	0.031 (≈ 0.0375 µM)	2 (≈ 2.42 µM)	0.063 (≈ 0.0763 µM)	2 (≈ 2.42 µM)	COc1c(NC(=O)c2ccc(NC(=O)c3ccc(NC(=O)[C@H](Cc4cnn[nH]4)NC(=O)c4ccc(C#Cc5ccc(O)cc5)cc4)cc3)c(OC)c2O)ccc(C(=O)O)c1O [Compound 5]						
0.031 (≈ 0.0374 µM)	0.5 (≈ 0.604 µM)	≤ 0.016	0.25 (≈ 0.302 µM)	0.031 (≈ 0.0374 µM)	0.25 (≈ 0.302 µM)	COc1c(NC(=O)c2ccc(NC(=O)c3ccc(NC(=O)[C@H](Cc4cnn[nH]4)NC(=O)c4ccc(C#Cc5ccc(F)cc5)cc4)cc3)c(OC)c2O)ccc(C(=O)O)c1O [Compound 6]						
0.25 (≈ 0.301 µM)	4 (≈ 4.82 µM)	0.125 (≈ 0.151 µM)	2 (≈ 2.41 µM)	0.5 (≈ 0.603 µM)	2 (≈ 2.41 µM)	COc1c(NC(=O)c2ccc(NC(=O)c3ccc(NC(=O)[C@H](Cc4cnn[nH]4)NC(=O)c4ccc(CCc5ccc(O)cc5)cc4)cc3)c(OC)c2O)ccc(C(=O)O)c1O [Compound 9]						
0.063 (≈ 0.0728 µM)	0.5 (≈ 0.577 µM)	0.016 (≈ 0.0185 µM)	0.063 (≈ 0.0728 µM)	0.063 (≈ 0.0728 µM)	0.25 (≈ 0.289 µM)	COc1c(C#Cc2ccc(NC(=O)[C@H](Cc3cnn[nH]3)NC(=O)c3ccc(NC(=O)/C(C)=C/c4ccc(O)cc4)cc3)cc2)ccc(C(=O)Nc2ccc(C(=O)O)c(O)c2OC)c1O [Compound 18]						
0.25 (≈ 0.296 µM)	8 (≈ 9.47 µM)	0.125 (≈ 0.148 µM)	2 (≈ 2.37 µM)	0.5 (≈ 0.592 µM)	4 (≈ 4.73 µM)	COc1c(NC(=O)c2ccc(NC(=O)c3ccc(NC(=O)[C@H](Cc4cnn[nH]4)NC(=O)c4ccc(NC(=N)c5ccc(O)cc5)cc4)cn3)c(OC)c2O)ccc(C(=O)O)c1O [Compound 32]						
